# Experimental data taken from paper PMC8410672 (Chemistry (Weinheim an der Bergstrasse, Germany), 2021).
# Key:
# [1] = tested on: clinical isolates of methicillin-resistant S. aureus; experiment: MIC against clinical isolates from cystic fibrosis patients; assay type: cell-based; conditions: n=20 methicillin-resistant clinical isolates; CAMHB
# [2] = tested on: clinical isolates of P. aeruginosa; experiment: as above; assay type: cell-based; conditions: n=20 clinical isolates, CAMHB
# Balb/c mice = experiment: toxicity profile in mice, intraperitoneal; assay type: in vivo, mouse; conditions: Balb/c mice n=3, i.p.; very mild toxicity after 1 h, recovered after 24 h
# [3] = tested on: P. aeruginosa (Schroeter) Migula (ATCC 27853); experiment: P. aeruginosa-induced bacterial peritonitis model; assay type: in vivo, Balb/c mice; conditions: 15 mg/kg i.p. single dose, n=10, 7 days, p <0.001
Molecule,S. aureus MICrange [1] [µM],P. aeruginosa MIC50 ([2]; 30% MDR) [µM],P. aeruginosa MIC90 [2] [µM],well tolerated intraperitoneal dose (MTD) (Balb/c mice) [mg/kg],survival hazard ratio [HR] [3]
CN[C@H](CC(C)C)C(=O)N[C@H]1C(=O)N[C@@H](CC(N)=O)C(=O)N[C@H]2C(=O)N[C@H]3C(=O)N[C@H](C(=O)N[C@H](C(=O)O)c4cc(O)cc(O)c4-c4cc3ccc4O)[C@H](O)c3ccc(c(Cl)c3)Oc3cc2cc(c3O[C@@H]2O[C@H](CO)[C@@H](O)[C@H](O)[C@H]2O[C@H]2C[C@](C)(N)[C@H](O)[C@H](C)O2)Oc2ccc(cc2Cl)[C@H]1O [Vancomycin],0.5 to 1.4,–,–,–,–
Colistin,–,≤ 0.2,0.4,15,0.040
